Data published in patent publication US20080146617A1, “Methods of treating inflammatory diseases” (Roche Palo Alto LLC, priority 2006, published 2008).
Where two headings read alike, the source gives them in different places.

How the values were obtained:
Experiment in all cases: KinomeScan kinase profiling
Assay type in all cases: binding
[1] = biological target: T1, STK17A (Homo sapiens, UniProt Q9UEE5)
T1 construct: purchased Ambit Biosciences
Excerpt: (§1) The selectivity of a given CK1δ, CK1ε or CK1δ-CK1ε inhibitor compound can be determined by testing the compound against a panel of known kinases. An example of such a kinase profiling technology is the “KinomeScan” from Ambit Biosciences in which compounds can be screened for their modulatory activities against more than 200 known kinases.

[2] = biological target: T2, ITK (Homo sapiens, UniProt Q08881)
T2 construct: purchased Ambit Biosciences (San Diego, Calif.)
Excerpt: as §1

[3] = biological target: T3, MAP4K5 (Homo sapiens, UniProt Q9Y4K4)
T3 construct: purchased Ambit Biosciences (San Diego, Calif.)
Excerpt: as §1

[4] = biological target: T4, TIE2 (Homo sapiens, UniProt Q02763)
T4 construct: purchased Ambit Biosciences
Excerpt: as §1

[5] = biological target: T5, PHKG2 (Homo sapiens, UniProt P15735)
T5 construct: purchased Ambit Biosciences (San Diego, Calif.)
Excerpt: as §1

[6] = biological target: T6, CAMK2D (Homo sapiens, UniProt Q13557)
T6 construct: purchased Ambit Biosciences (San Diego, Calif.)
Excerpt: as §1

[7] = biological target: T7, EPHA8 (Homo sapiens, UniProt P29322)
T7 construct: purchased Ambit Biosciences (San Diego, Calif.)
Excerpt: as §1

[8] = biological target: T8, CSK (Homo sapiens, UniProt P41240)
T8 construct: purchased Ambit Biosciences (San Diego, Calif.)
Excerpt: as §1

[9] = biological target: T9, PLK4 (Homo sapiens, UniProt O00444)
T9 construct: purchased Ambit Biosciences (San Diego, Calif.)
Excerpt: as §1

[10] = biological target: T10, ERBB4 (Homo sapiens, UniProt Q15303)
T10 construct: purchased Ambit Biosciences (San Diego, Calif.)
Excerpt: as §1

[11] = biological target: T11, FGFR1 (Homo sapiens, UniProt P11362)
T11 construct: purchased Ambit Biosciences (San Diego, Calif.)
Excerpt: as §1

[12] = biological target: T12, CAMK2B (Homo sapiens, UniProt Q13554)
T12 construct: purchased Ambit Biosciences (San Diego, Calif.)
Excerpt: as §1

[13] = biological target: T13, MARK2 (Homo sapiens, UniProt Q7KZI7)
T13 construct: purchased Ambit Biosciences (San Diego, Calif.)
Excerpt: as §1

[14] = biological target: T14, NEK2 (Homo sapiens, UniProt P51955)
T14 construct: purchased Ambit Biosciences (San Diego, Calif.)
Excerpt: as §1

[15] = biological target: T15, PKMYT1 (Homo sapiens, UniProt Q99640)
T15 construct: purchased Ambit Biosciences (San Diego, Calif.)
Excerpt: as §1

[16] = biological target: T16, TXK (Homo sapiens, UniProt P42681)
T16 construct: purchased Ambit Biosciences
Excerpt: as §1

[17] = biological target: T17, p38-gamma (Homo sapiens, UniProt P53778)
T17 construct: purchased Ambit Biosciences (San Diego, Calif.)
Excerpt: as §1

[18] = biological target: T18, CAMK1 (Homo sapiens, UniProt Q14012)
T18 construct: purchased Ambit Biosciences (San Diego, Calif.)
Excerpt: as §1

[19] = biological target: T19, PAK1 (Homo sapiens, UniProt Q13153)
T19 construct: purchased Ambit Biosciences (San Diego, Calif.)
Excerpt: as §1

[20] = biological target: T20, NEK9 (Homo sapiens, UniProt Q8TD19)
T20 construct: purchased Ambit Biosciences (San Diego, Calif.)
Excerpt: as §1

[21] = biological target: T21, EGFR (Homo sapiens, UniProt P00533)
T21 construct: purchased Ambit Biosciences (San Diego, Calif.)
Excerpt: as §1

[22] = biological target: T22, INSR (Homo sapiens, UniProt P06213)
T22 construct: purchased Ambit Biosciences (San Diego, Calif.)
Excerpt: as §1

[23] = biological target: T23, PTK2B (Homo sapiens, UniProt Q14289)
T23 construct: purchased Ambit Biosciences
Excerpt: as §1

[24] = biological target: T24, MYLK2 (Homo sapiens, UniProt Q9H1R3)
T24 construct: purchased Ambit Biosciences (San Diego, Calif.)
Excerpt: as §1

[25] = biological target: T25, CLK3 (Homo sapiens, UniProt P49761)
T25 construct: purchased Ambit Biosciences (San Diego, Calif.)
Excerpt: as §1

[26] = biological target: T26, CSNK2A1 (Homo sapiens, UniProt P68400)
T26 construct: purchased Ambit Biosciences (San Diego, Calif.)
Excerpt: as §1

[27] = biological target: T27, EPHA6 (Homo sapiens, UniProt Q9UF33)
T27 construct: purchased Ambit Biosciences (San Diego, Calif.)
Excerpt: as §1

[28] = biological target: T28, PTK2 (Homo sapiens, UniProt Q05397)
T28 construct: purchased Ambit Biosciences
Excerpt: as §1

[29] = biological target: T29, AKT1 (Homo sapiens, UniProt P31749)
T29 construct: purchased Ambit Biosciences (San Diego, Calif.)
Excerpt: as §1

[30] = biological target: T30, ERBB2 (Homo sapiens, UniProt P04626)
T30 construct: purchased Ambit Biosciences (San Diego, Calif.)
Excerpt: as §1

[31] = biological target: T31, CSNK1G2 (Homo sapiens, UniProt P78368)
T31 construct: purchased Ambit Biosciences (San Diego, Calif.)
Excerpt: as §1

[32] = biological target: T32, NEK6 (Homo sapiens, UniProt Q9HC98)
T32 construct: purchased Ambit Biosciences (San Diego, Calif.)
Excerpt: as §1

[33] = biological target: T33, FRK (Homo sapiens, UniProt P42685)
T33 construct: purchased Ambit Biosciences (San Diego, Calif.)
Excerpt: as §1

[34] = biological target: T34, PAK3 (Homo sapiens, UniProt O75914)
T34 construct: purchased Ambit Biosciences (San Diego, Calif.)
Excerpt: as §1

[35] = biological target: T35, LYN (Homo sapiens, UniProt P07948)
T35 construct: purchased Ambit Biosciences (San Diego, Calif.)
Excerpt: as §1

[36] = biological target: T36, PDPK1 (Homo sapiens, UniProt O15530)
T36 construct: purchased Ambit Biosciences (San Diego, Calif.)
Excerpt: as §1

[37] = biological target: T37, RAF1 (Homo sapiens, UniProt P04049)
T37 construct: purchased Ambit Biosciences
Excerpt: as §1

[38] = biological target: T38, FYN (Homo sapiens, UniProt P06241)
T38 construct: purchased Ambit Biosciences (San Diego, Calif.)
Excerpt: as §1

[39] = biological target: T39, CAMK2A (Homo sapiens, UniProt Q9UQM7)
T39 construct: purchased Ambit Biosciences (San Diego, Calif.)
Excerpt: as §1

[40] = biological target: T40, ABL1 (Homo sapiens, UniProt P00519)
T40 construct: purchased Ambit Biosciences (San Diego, Calif.)
Excerpt: as §1

T12 sequence (Q13554 whole entry): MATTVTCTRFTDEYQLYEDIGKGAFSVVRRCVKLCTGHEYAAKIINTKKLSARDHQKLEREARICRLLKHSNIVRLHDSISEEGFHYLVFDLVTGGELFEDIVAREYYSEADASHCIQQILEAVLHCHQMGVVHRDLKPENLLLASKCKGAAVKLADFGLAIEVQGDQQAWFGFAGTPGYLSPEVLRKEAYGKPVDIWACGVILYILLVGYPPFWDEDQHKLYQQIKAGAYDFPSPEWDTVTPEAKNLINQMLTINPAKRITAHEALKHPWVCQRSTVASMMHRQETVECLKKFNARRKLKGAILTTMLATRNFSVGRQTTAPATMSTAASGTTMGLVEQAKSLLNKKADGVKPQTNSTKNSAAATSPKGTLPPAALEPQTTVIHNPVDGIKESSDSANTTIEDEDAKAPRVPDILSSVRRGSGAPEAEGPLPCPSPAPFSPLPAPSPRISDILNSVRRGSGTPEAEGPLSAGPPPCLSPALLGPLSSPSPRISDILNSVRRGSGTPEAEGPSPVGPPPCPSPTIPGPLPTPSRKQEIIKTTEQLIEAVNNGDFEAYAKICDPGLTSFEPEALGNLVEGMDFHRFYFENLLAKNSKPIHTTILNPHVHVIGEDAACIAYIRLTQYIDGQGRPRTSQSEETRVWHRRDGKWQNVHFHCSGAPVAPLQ
T17 sequence (P53778 whole entry): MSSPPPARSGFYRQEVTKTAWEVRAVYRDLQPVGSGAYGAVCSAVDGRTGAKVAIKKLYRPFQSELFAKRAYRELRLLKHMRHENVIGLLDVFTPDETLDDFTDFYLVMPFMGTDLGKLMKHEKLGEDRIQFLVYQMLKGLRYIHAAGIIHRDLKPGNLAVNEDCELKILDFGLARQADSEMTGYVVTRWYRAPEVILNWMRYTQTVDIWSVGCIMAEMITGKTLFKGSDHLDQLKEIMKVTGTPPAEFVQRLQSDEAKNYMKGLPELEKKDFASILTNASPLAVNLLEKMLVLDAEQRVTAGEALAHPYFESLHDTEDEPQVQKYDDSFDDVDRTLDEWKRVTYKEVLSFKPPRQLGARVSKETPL
T24 sequence (Q9H1R3 whole entry): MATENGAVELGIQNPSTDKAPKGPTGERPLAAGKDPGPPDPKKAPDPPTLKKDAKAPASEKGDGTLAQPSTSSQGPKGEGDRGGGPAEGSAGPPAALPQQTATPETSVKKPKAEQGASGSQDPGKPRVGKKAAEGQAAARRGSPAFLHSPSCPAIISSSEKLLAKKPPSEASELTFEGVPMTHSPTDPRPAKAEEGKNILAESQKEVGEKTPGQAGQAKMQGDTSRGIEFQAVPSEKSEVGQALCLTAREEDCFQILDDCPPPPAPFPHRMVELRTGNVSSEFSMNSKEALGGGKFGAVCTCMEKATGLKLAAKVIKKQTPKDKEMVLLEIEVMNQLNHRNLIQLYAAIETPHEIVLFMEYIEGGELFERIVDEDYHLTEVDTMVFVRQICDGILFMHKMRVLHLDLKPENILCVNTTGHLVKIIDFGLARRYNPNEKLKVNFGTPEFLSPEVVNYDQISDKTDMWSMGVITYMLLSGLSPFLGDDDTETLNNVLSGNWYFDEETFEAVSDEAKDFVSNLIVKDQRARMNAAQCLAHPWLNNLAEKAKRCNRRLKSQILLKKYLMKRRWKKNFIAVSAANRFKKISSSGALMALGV
T33 sequence (P42685 whole entry): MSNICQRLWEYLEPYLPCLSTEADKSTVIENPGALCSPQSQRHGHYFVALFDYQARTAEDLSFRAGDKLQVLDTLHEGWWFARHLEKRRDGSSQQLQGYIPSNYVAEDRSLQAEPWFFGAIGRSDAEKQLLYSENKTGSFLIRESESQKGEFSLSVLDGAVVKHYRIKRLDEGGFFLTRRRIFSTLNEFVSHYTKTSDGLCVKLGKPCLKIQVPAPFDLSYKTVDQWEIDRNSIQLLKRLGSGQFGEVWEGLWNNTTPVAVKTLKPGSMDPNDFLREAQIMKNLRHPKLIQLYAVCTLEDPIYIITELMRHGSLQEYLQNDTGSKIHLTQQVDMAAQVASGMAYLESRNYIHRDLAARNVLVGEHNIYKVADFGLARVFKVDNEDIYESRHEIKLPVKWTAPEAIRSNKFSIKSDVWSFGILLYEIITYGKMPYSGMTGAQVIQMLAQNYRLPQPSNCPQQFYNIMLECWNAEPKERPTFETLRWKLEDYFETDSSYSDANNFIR
T11 sequence (P11362 22-822): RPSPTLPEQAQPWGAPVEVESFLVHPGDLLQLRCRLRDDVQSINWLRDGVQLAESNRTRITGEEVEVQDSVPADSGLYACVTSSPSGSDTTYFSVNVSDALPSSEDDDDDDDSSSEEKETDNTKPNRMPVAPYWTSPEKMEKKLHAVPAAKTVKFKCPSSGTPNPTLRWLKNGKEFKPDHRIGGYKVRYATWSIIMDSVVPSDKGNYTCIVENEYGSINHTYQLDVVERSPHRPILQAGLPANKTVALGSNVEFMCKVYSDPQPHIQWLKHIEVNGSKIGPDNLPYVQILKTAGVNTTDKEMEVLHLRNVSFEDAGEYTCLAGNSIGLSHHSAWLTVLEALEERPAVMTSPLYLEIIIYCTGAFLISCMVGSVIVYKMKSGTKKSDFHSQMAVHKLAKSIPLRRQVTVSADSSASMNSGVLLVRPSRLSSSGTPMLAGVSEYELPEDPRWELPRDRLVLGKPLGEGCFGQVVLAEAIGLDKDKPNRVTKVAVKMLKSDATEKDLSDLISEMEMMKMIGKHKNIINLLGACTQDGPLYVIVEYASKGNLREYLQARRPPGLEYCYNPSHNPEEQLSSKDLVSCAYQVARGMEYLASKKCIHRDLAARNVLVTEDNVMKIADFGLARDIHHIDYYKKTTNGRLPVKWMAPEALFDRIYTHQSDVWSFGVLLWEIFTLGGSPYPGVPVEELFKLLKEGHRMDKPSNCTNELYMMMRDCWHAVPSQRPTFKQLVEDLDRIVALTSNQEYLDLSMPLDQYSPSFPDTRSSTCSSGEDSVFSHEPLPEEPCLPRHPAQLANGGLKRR
T8 sequence (P41240 whole entry): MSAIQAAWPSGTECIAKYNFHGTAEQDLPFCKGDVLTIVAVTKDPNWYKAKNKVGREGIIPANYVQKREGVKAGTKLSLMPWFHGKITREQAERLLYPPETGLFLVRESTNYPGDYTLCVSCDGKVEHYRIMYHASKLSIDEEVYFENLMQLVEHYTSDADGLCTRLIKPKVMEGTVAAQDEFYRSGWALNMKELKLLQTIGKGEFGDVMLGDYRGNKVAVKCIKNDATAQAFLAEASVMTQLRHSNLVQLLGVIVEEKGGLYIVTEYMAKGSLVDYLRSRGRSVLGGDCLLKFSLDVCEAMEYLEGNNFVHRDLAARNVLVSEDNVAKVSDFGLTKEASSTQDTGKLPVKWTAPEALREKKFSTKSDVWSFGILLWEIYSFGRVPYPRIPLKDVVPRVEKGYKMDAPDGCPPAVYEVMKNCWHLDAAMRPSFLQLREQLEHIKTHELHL
T30 sequence (P04626 23-1255): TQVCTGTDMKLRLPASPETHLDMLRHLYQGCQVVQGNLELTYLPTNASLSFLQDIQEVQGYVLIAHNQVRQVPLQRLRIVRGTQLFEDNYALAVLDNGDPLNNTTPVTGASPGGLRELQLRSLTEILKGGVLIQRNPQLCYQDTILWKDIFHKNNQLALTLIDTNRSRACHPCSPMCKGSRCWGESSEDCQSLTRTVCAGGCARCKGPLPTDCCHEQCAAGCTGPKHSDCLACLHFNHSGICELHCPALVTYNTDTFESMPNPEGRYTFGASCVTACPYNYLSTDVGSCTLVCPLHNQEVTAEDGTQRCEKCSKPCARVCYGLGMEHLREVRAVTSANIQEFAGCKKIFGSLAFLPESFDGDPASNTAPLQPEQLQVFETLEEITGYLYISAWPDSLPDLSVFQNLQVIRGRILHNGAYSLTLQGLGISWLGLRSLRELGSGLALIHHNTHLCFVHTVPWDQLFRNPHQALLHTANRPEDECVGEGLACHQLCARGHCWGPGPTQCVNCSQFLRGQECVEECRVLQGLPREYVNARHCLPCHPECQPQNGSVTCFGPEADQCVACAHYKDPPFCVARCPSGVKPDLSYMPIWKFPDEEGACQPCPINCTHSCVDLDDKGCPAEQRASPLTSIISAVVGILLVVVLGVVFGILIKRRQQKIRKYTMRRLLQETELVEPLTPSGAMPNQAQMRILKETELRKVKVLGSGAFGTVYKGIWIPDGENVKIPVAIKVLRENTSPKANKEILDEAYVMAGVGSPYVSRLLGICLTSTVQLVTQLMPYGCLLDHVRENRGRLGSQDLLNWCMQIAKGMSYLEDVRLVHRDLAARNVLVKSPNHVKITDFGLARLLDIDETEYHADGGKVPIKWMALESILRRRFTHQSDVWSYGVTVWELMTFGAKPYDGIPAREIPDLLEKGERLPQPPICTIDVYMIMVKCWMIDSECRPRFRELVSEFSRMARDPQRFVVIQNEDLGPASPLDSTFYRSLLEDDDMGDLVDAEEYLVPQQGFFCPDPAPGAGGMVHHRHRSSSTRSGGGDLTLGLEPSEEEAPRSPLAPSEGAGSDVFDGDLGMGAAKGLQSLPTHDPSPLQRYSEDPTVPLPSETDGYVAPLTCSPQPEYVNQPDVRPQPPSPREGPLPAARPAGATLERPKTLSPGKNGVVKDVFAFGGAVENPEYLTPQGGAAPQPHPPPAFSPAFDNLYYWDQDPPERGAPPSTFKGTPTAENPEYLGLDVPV
T5 sequence (P15735 whole entry): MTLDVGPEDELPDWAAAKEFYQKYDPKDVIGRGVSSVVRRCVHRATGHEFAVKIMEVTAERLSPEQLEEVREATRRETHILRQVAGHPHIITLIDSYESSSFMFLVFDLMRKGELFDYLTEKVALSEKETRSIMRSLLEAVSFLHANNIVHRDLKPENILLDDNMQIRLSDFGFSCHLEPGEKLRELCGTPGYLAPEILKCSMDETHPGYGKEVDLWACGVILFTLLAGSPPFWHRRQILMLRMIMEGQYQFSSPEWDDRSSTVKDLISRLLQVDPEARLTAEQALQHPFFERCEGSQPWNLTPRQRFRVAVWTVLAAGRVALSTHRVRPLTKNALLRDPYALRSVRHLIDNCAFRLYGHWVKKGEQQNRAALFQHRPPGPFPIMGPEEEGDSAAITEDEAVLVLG

| Compound | inhibition at 10 µM [1] | inhibition at 10 µM [2] | inhibition at 10 µM [3] | inhibition at 10 µM [4] | inhibition at 10 µM [5] | inhibition at 10 µM [6] | inhibition at 10 µM [7] | inhibition at 10 µM [8] | inhibition at 10 µM [9] | inhibition at 10 µM [10] | inhibition at 10 µM [11] | inhibition at 10 µM [12] | inhibition at 10 µM [13] | inhibition at 10 µM [14] | inhibition at 10 µM [15] | inhibition at 10 µM [16] | inhibition at 10 µM [17] | inhibition at 10 µM [18] | inhibition at 10 µM [19] | inhibition at 10 µM [20] | further results |
| --- | --- | --- | --- | --- | --- | --- | --- | --- | --- | --- | --- | --- | --- | --- | --- | --- | --- | --- | --- | --- | --- |
| NC(=O)c1ccc(-c2nc(-c3ccc4c(c3)OCCO4)c(-c3ccccn3)[nH]2)cc1 [D4476, 4-[4-(2,3-Dihydro-benzo[1,4]dioxin-6-yl)-5-pyridin-2-yl-1H-imidazol-2-yl]benzamide] | < 50% | < 50% | < 50% | < 50% | < 50% | < 50% | < 50% | < 50% | < 50% | < 50% | < 50% | < 50% | < 50% | < 50% | < 50% | < 50% | < 50% | < 50% | < 50% | < 50% | inhibition at 10 µM [21]: < 50%; inhibition at 10 µM [22]: < 50%; inhibition at 10 µM [23]: < 50%; inhibition at 10 µM [24]: < 50%; inhibition at 10 µM [25]: < 50%; inhibition at 10 µM [26]: < 50%; inhibition at 10 µM [27]: < 50%; inhibition at 10 µM [28]: < 50%; inhibition at 10 µM [29]: < 50%; inhibition at 10 µM [30]: < 50%; inhibition at 10 µM [31]: < 50%; inhibition at 10 µM [32]: < 50%; inhibition at 10 µM [33]: < 50%; inhibition at 10 µM [34]: < 50%; inhibition at 10 µM [35]: < 50%; inhibition at 10 µM [36]: < 50%; inhibition at 10 µM [37]: < 50%; inhibition at 10 µM [38]: < 50%; inhibition at 10 µM [39]: < 50%; inhibition at 10 µM [40]: < 50% |
| NC(=O)c1ccc(-c2nc(-c3ccc4c(c3)OCO4)c(-c3ccccn3)[nH]2)cc1 [SB431542, 4-(4-benzo-[1,3]dioxol-5-yl-5-pyridin-2-yl-1H-imidazol-2-yl)benzamide] | < 50% | < 50% | < 50% | < 50% | < 50% | < 50% | < 50% | < 50% | < 50% | < 50% | < 50% | < 50% | < 50% | < 50% | < 50% | < 50% | < 50% | < 50% | < 50% | < 50% | inhibition at 10 µM [21]: < 50%; inhibition at 10 µM [22]: < 50%; inhibition at 10 µM [23]: < 50%; inhibition at 10 µM [24]: < 50%; inhibition at 10 µM [25]: < 50%; inhibition at 10 µM [26]: < 50%; inhibition at 10 µM [27]: < 50%; inhibition at 10 µM [28]: < 50%; inhibition at 10 µM [29]: < 50%; inhibition at 10 µM [30]: < 50%; inhibition at 10 µM ([31]; 10 μM, CSNK1G2, read-out: % Inhibition): < 50%; inhibition at 10 µM [32]: < 50%; inhibition at 10 µM [33]: < 50%; inhibition at 10 µM [34]: < 50%; inhibition at 10 µM [35]: < 50%; inhibition at 10 µM [36]: < 50%; inhibition at 10 µM [37]: < 50%; inhibition at 10 µM [38]: < 50%; inhibition at 10 µM [39]: < 50%; inhibition at 10 µM [40]: < 50% |
